The record followed here is US20250122160A1, “PROTEIN TYROSINE PHOSPHATASE INHIBITORS AND METHODS OF USE THEREOF” (Calico Life Sciences LLC, priority 0001, published 2025).

Assay [1] deals with T1, His tagged PTPN2 (TC45) protein (Homo sapiens, UniProt P17706).
T1 construct: made in house
T1 sequence (P17706 with tags, fused parts or gaps isoform P17706-2): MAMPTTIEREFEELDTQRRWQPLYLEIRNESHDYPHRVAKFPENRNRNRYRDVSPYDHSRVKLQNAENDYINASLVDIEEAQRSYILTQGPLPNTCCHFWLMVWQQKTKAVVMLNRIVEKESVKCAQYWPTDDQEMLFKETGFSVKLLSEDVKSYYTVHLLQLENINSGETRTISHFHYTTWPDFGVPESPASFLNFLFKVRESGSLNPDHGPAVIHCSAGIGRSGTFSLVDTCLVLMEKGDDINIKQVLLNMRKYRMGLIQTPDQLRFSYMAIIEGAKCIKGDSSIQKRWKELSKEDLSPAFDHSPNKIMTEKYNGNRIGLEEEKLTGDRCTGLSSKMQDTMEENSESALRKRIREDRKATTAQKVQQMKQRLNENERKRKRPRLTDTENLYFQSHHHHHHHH
Put plainly: Mobility shift assay (MSA) to determine potency of PTPN2 inhibitors. Type of assay: biochemical. The following applies: 0.5 nM enzyme, 2 μM substrate. How it is done:
Compound activity was determined using in house His tagged PTPN2 (TC45) protein (SEQ ID NO: 1) in an in vitro enzymatic reaction. The enzymatic assay used to determine activity was a mobility shift assay using a LabChip EZ Reader by Caliper Life Sciences. The enzymatic reaction was carried out in assay buffer (50 mM HEPES pH 7.5, 1 mM EGTA, 10 mM EDTA, 0.01% Tween® 20, and 2 mM DTT). The compounds were dispensed on a white 384 well ProxiPlate™ (PerkinElmer Catalog #6008289) plate using the Labcyte Echo at varying concentrations (12 point, 1:3 dilution). The enzyme (at 0.5 nM) was incubated with compound for 10 minutes at room temperature. Then the substrate (phosphorylated insulin receptor probe sequence: ((OG488)-(NH—CH2—CH2—O—CH2—CH2—O—CH2—CO)-T-R-D-I-(PY)-E-T-D-Y—Y—R—K—K—NH2) (SEQ ID NO: 2) was added at 2 μM to the plates and incubated for another 10 minutes at room temperature. Finally, a quench solution (water and 4-bromo-3-(2-oxo-2-propoxyethoxy)-5-(3-{[1-(phenylmethanesulfonyl)piperidin-4-yl]amino}phenyl)thiophene-2-carboxylic acid) was added to the plates, which were then run on the EZ Reader (excitation 488 nm, emission 530 nm) to measure % conversion (the amount of phosphorylated substrate which was de-phosphorylated by PTPN2). […] The % inhibition was then used to calculate the IC50 values.

Assay [2] addresses T2, His tagged full-length PTPN1 protein (Homo sapiens, UniProt P18031).
T2 construct: made in house
T2 sequence (P18031 with tags, fused parts or gaps): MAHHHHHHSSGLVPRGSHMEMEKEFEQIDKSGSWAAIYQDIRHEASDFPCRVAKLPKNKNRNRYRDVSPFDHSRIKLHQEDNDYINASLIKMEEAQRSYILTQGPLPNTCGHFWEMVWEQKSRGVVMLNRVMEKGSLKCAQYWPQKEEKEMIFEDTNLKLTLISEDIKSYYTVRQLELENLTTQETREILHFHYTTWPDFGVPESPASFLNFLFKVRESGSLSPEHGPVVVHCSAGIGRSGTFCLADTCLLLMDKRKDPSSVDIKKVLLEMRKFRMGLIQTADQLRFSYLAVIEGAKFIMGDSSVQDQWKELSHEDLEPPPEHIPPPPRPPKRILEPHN
Put plainly: Mobility shift assay (MSA) to determine potency of PTPN1 inhibitors. Type of assay: biochemical. The note with it: 0.5 nM enzyme, 2 μM substrate. Here is the method:
Compound activity was determined using in house His tagged full-length PTPN1 protein (SEQ ID NO: 3) in an in vitro enzymatic reaction. The enzymatic assay used to determine activity is a mobility shift assay using a LabChip EZ Reader by Caliper Life Sciences. The enzymatic reaction was carried out in assay buffer (50 mM HEPES pH 7.5, 1 mM EGTA, 10 mM EDTA. 0.01% Tween® 20, and 2 mM DTT). The compounds were dispensed on a white 384 well ProxiPlate™ (PerkinElmer Cat #6008289) plate using a Labcyte Echo® liquid handler at varying concentrations (12 point, 1:3 dilution). The enzyme (at 0.5 nM) was incubated with compound for 10 minutes at room temperature. Then the substrate (phosphorylated insulin receptor probe sequence: ((OG488)-(NH—CH2—CH2—O—CH2—CH2—O—CH2—CO)-T-R-D-I-(PY)-E-T-D-Y—Y—R—K—K—NH2) (SEQ ID NO: 2) was added at 2 μM to the plates and incubated for another 10 minutes at room temperature. Finally, a quench solution (water and 4-bromo-3-(2-oxo-2-propoxyethoxy)-5-(3-{[1-(phenylmethanesulfonyl)piperidin-4-yl]amino}phenyl)thiophene-2-carboxylic acid) was added to the plates, which were then run on the EZ Reader (excitation 488 nm, emission 530 nm) to measure % conversion (the amount of phosphorylated substrate which was de-phosphorylated by PTPN1). […] The % inhibition was then used to calculate the IC50 values.

pIC50: −log10 of the molar value.

With `O=C1CN(c2c(O)cc3c(c2F)CN(CCC2(C(F)(F)F)CC2)CC3)S(=O)(=O)N1` [Compound 243], the negative-log IC50 (pIC50) in assay [1] and in assay [2] was 8.00 to 9.00 each time.
In the case of `Cc1nn(C(C)C)c(C)c1CCN1CCc2cc(O)c(N3CC(=O)NS3(=O)=O)c(F)c2C1` [Compound 273], the pIC50 in assay [1] and in assay [2] was 8.00 to 9.00 throughout.
In the case of `CC1(C)COC(CCCCN2CCc3cc(O)c(N4CC(=O)NS4(=O)=O)c(F)c3C2)OC1` [Compound 296], the pIC50 was 7.00 to 8.00 in assay [1] and less than 7.00 in assay [2].
For `CCCCC(=N)N1CCc2cc(O)c(N3CC(=O)NS3(=O)=O)c(F)c2C1` [Compound 158] the same measures were 7.00 to 8.00 and less than 7.00.
For `Cc1nn(C)c(C)c1CN1CCC(N2CCc3cc(O)c(N4CC(=O)NS4(=O)=O)c(F)c3C2)CC1` [Compound 236] the same measures were less than 7.00 and 7.00 to 8.00.
For the compound `O=C1CN(c2c(O)cc3c(c2F)C[C@H](NCC2CC(c4ccccc4)C2)CO3)S(=O)(=O)N1` (stereo partly drawn) [Compound 385, 5-[(3S)-5-fluoro-7-hydroxy-3-{[(3-phenylcyclobutyl)methyl]amino}-3,4-dihydro-2H-1-benzopyran-6-yl]-1λ^6,2,5-thiadiazolidine-1,1,3-trione], the negative logarithm of the IC50 (pIC50) is 8.00 to 9.00 in assay [1] and 7.00 to 8.00 in assay [2].
For `Cn1cccc1CN[C@@H]1CCc2cc(O)c(N3CC(=O)NS3(=O)=O)c(F)c2C1` [Compound 345, 5-[(7R)-1-fluoro-3-hydroxy-7-{[(1-methyl-1H-pyrrol-2-yl)methyl]amino}-5,6,7,8-tetrahydronaphthalen-2-yl]-1λ^6,2,5-thiadiazolidine-1,1,3-trione], in that order: 7.00 to 8.00 and 7.00 to 8.00.
On to `O=C1CN(c2c(O)cc3c(c2F)CN(CCN2CCNCC2)CC3)S(=O)(=O)N1` [Compound 247], for which the negative-log IC50 (pIC50) in assay [1] and in assay [2] was 7.00 to 8.00 throughout.
`Cc1n[nH]c(C)c1CN1CCc2cc(O)c(N3CC(=O)NS3(=O)=O)c(F)c2C1` [Compound 212]: the pIC50 in assay [1] and in assay [2] was less than 7.00 each time.
For `CC(C)(C)c1ccc(CCCN2CCc3cc(O)c(N4CC(=O)NS4(=O)=O)c(F)c3C2)cc1` [Compound 301], the figures for the negative logarithm of the IC50 (pIC50) in assay [1] and in assay [2] were 7.00 to 8.00 and less than 7.00, respectively.
With `CC(C)CCCC1CCc2cc(O)c(N3CC(=O)NS3(=O)=O)c(F)c2C1` (stereo not drawn) [Compound 323], the pIC50 in assay [2] was 8.00 to 9.00.
In the case of `CC(C)CCN[C@H]1CCc2cc(O)c(N3CC(=O)NS3(=O)=O)c(F)c2C1` (single isomer, unassigned) [Compound 117], the pIC50 in assay [2] was 7.00 to 8.00.
The same measure, in the same setting: the same measure for `CC(C)(CCN[C@H]1CCc2cc(O)c(N3CC(=O)NS3(=O)=O)c(F)c2C1)C(F)(F)F` (single isomer, unassigned) [Compound 176]: 7.00 to 8.00.
`CC1=C(CCN[C@@H]2COc3cc(O)c(N4CC(=O)NS4(=O)=O)c(F)c3C2)C(C)(C)CCC1` [Compound 378, 5-[(3S)-5-fluoro-7-hydroxy-3-{[2-(2,6,6-trimethylcyclohex-1-en-1-yl)ethyl]amino}-3,4-dihydro-2H-1-benzopyran-6-yl]-1λ^6,2,5-thiadiazolidine-1,1,3-trione]: the pIC50 in assay [1] was 7.00 to 8.00.
Still for that read-out and setting: the same measure for `CN(C)CCCNC(=O)N1CCc2cc(O)c(N3CC(=O)NS3(=O)=O)c(F)c2C1` [Compound 285]: 7.00 to 8.00.
Take `CO[C@@H]1CCc2cc(O)c(N3CC(=O)NS3(=O)=O)c(F)c2C1` (single isomer, unassigned) [Compound 104]: the pIC50 in assay [2] was 7.00 to 8.00.
Consider `CC(C)(CCN[C@@H]1CCc2cc(O)c(N3CC(=O)NS3(=O)=O)c(F)c2C1)C(F)(F)F` (single isomer, unassigned) [Compound 177], for which the negative-log IC50 (pIC50) in assay [2] is 8.00 to 9.00.
On the same count and under the same terms, the same measure for `C[C@@H](O)CCN[C@@H]1CCc2cc(O)c(N3CC(=O)NS3(=O)=O)c(F)c2C1` (single isomer, unassigned) [Compound 307]: 8.00 to 9.00; for `O=C1CN(c2c(O)cc3c(c2F)C[C@H](NCCCC(F)F)CC3)S(=O)(=O)N1` (single isomer, unassigned) [Compound 199]: greater than 9.00; for `O=C1CN(c2c(O)cc3c(c2F)C[C@H](NCCC2CC2)CC3)S(=O)(=O)N1` (single isomer, unassigned) [Compound 133]: 8.00 to 9.00.
Same read-out and setting: the same measure for `O=C1CN(c2c(O)cc3c(c2F)CN(C[C@H]2C[C@@H]2c2ccncc2)CC3)S(=O)(=O)N1` (racemic) [Compound 248]: 7.00 to 8.00; for `CO[C@H]1CCc2cc(O)c(N3CC(=O)NS3(=O)=O)c(F)c2C1` (single isomer, unassigned) [Compound 109]: 7.00 to 8.00; for `CC(C)(CO)CCN[C@@H]1CCc2cc(O)c(N3CC(=O)NS3(=O)=O)c(F)c2C1` (single isomer, unassigned) [Compound 308]: 8.00 to 9.00.
For the compound `O=C1CN(c2c(O)cc3c(c2F)C[C@@H](NCCCC(F)(F)F)CC3)S(=O)(=O)N1` (single isomer, unassigned) [Compound 147], the pIC50 in assay [2] is 7.00 to 8.00.
Still for that read-out and setting: the same measure for `O=C1CN(c2c(O)cc3c(c2F)C[C@@H]([C@H]2CCN(S(=O)(=O)C4CC4)C2)CC3)S(=O)(=O)N1` (single isomer, unassigned) [Compound 139]: 7.00 to 8.00.
Same read-out and setting: the same measure for `O=C1CN(c2c(O)cc3c(c2F)C[C@@H](NCCC2CC2)CC3)S(=O)(=O)N1` (single isomer, unassigned) [Compound 134]: 7.00 to 8.00; for `O=C1CN(c2c(O)cc3c(c2F)C[C@@H]([C@H]2CCNC2)CC3)S(=O)(=O)N1` (single isomer, unassigned) [Compound 138]: 7.00 to 8.00; for `O=C1CN(c2c(O)cc3c(c2F)C[C@H](NCCC2(C(F)(F)F)CC2)CC3)S(=O)(=O)N1` (single isomer, unassigned) [Compound 148]: greater than 9.00.
For the compound `O=C1CN(c2c(O)cc3c(c2F)C[C@H](NCCC(F)F)CC3)S(=O)(=O)N1` (single isomer, unassigned) [Compound 260], the pIC50 in assay [2] is 8.00 to 9.00.
Consider `O=C1CN(c2c(O)cc3c(c2F)C[C@@H]([C@@H]2CCNC2)CC3)S(=O)(=O)N1` (single isomer, unassigned) [Compound 136], for which the pIC50 in assay [2] was 7.00 to 8.00.
`CC(C)CCNC[C@H]1Cc2cc(O)c(N3CC(=O)NS3(=O)=O)c(F)c2C1` (single isomer, unassigned) [Compound 292]: the pIC50 in assay [2] was 7.00 to 8.00.
For `O=C1CN(c2c(O)cc3c(c2F)C[C@@H]([C@@H]2CCN(S(=O)(=O)C4CC4)C2)CC3)S(=O)(=O)N1` (single isomer, unassigned) [Compound 137], the negative logarithm of the IC50 (pIC50) in assay [2] was 8.00 to 9.00.
In the case of `Cc1cc(CNC(=O)N2CCc3cc(O)c(N4CC(=O)NS4(=O)=O)c(F)c3C2)n(C)n1` [Compound 265], the pIC50 in assay [1] was 7.00 to 8.00.
For `O=C1CN(c2c(O)cc3c(c2F)C[C@@H](NCCC(F)F)CC3)S(=O)(=O)N1` (single isomer, unassigned) [Compound 259], in assay [2], the pIC50 was 7.00 to 8.00.
For the compound `CC(C)CCNC[C@@H]1Cc2cc(O)c(N3CC(=O)NS3(=O)=O)c(F)c2C1` (single isomer, unassigned) [Compound 291], the pIC50 in assay [2] is 8.00 to 9.00.

The term pIC50 denotes −log10 of the IC50, conventionally taken in molar units.
